Measured values: article PMC8648872, “A host-directed macrocyclic peptide therapeutic for MDR gram negative bacterial infections” (Scientific Reports, 2021)
Converted amounts (≈) assume the structure as drawn. Where a SMILES comes first, the peptide text is derived from it. Bridges are numbered along the chain shown (N, C = ends).

Tests used:
human whole blood = test: Cytokine release by human whole blood incubated with live Kp-1705; format: cell-based; conditions: human whole blood 1:10 in RPMI-1640, 1000 CFU/ml Kp-1705, 4 h, 37 °C, ELISA
Procedure: Log-phase […] grown in TSB were pelleted, washed twice in PBS, and suspended to 1 × 10^5 CFU/ml in RPMI-1640. EDTA-anticoagulated blood collected from a healthy adult human donor was incubated at a final dilution of 1:10 in RPMI-1640 with 1000 CFU/ml of Kp-1705 and varied concentrations of MTD12813 for 4 h 37 °C in 5% CO2 with gentle rocking. Incubation supernatants were frozen at − 80 °C. TNF and IL-6 were quantified by ELISA (Invitrogen KHC3011, KHC0061).

[1] = LPS neutralization, limulus amebocyte lysate assay; format: biochemical; conditions: 0.5 EU/ml LPS, 0.078–5 μg/ml, 37 °C, 30 min; data not shown
Procedure: A limulus amebocyte lysate endotoxin detection assay (Pierce A39553) protocol was employed by preincubating 0.5 EU/ml of LPS with either MTD12813, RTD-1, or colistin (0.078–5 μg/ml) in H20 at 37 °C for 30 min followed by quantifying free LPS per manufacturer’s instructions. All samples were compared to a LPS standard curve to determine the degree of LPS neutralization.

[2] = system: Kp-1705 (K. pneumoniae BAA-1705); test: Kp-1705 bacteremic sepsis, survival; format: in vivo, BALB/c mice; conditions: for long term (≥ 28 days) survival: Kp-1705 i.p. in BALB/c mice
Procedure: BALB/c mice (Jackson Laboratories) 8–10 weeks of age were acclimated (3–5 to a cage for at least 5 days prior to infection) in a thermostatically controlled room with 12 h light/dark cycle. Cryopreserved K. pneumoniae cells were thawed and adjusted to a density of 6–10 × 10^8 CFU/ml, confirmed by plating on trypticase soy agar (TSA) plates. E. coli BAA-2340 was grown to log-phase in trypticase soy broth, pelleted, washed with PBS, and resuspended in PBS at 0.5–1 × 10^9 CFU/ml. Mice were infected by i.p. injection of 2–5 × 10^8 CFU of Kp-1705 or 3–6 × 10^7 CFU of E. coli BAA-2340 using a 28 g needle in a volume of 0.5 ml. Post-infection, mice were observed three times a day for at least 4 days and then daily for 28 days. Mice were euthanized when they became moribund. All experiments used both male and female mice and were repeated at least twice.

E. coli BAA-2471 (NDM-1) = test: microbe, parasite or virus in culture; format: cell-based
Procedure: (§1) Bacterial strains were obtained from American Type Culture Collection. K. pneumoniae strains included BAA-1705 (blaKPC-2, hypermucoid), BAA-2146 (blaNDM-1), BAA-700603 (SHV-18, extended spectrum β-lactamase, ESBL), and BAA-1706 (non-CRE reference strain). E. coli strains included BAA-2340 (blaKPC-2), BAA-2471 (blaNDM-1), and ML35 (non-CRE reference strain).
(§2) Minimum inhibitory concentration (MIC) assays were performed ± 50% heat-inactivated mouse serum using Clinical and Laboratory Standards Institute (CLSI; document M07-A9) protocols. Bacteria (5 × 10^5 CFU/ml) were incubated with antibiotics or peptide for 20 h at 37 °C, and bacterial growth was determined by A620 using a SpectraMax M5e plate reader.

K. pneumoniae BAA-1706 = test: microbe, parasite or virus in culture; format: cell-based; conditions: K. pneumoniae BAA-1706, no MDR factor
Procedure: as §1, §2

[3] = system: K. pneumoniae BAA-1705 (KPC-2); test: microbe, parasite or virus in culture; format: cell-based; conditions: 20 h, 37 °C
Procedure: as §1, §2

E. coli BAA-2340 (KPC-2) = test: microbe, parasite or virus in culture; format: cell-based; conditions: E. coli BAA-2340, KPC-2
Procedure: as §1, §2

E. coli ML35 = test: microbe, parasite or virus in culture; format: cell-based; conditions: E. coli ML35, no MDR factor
Procedure: as §1, §2

[4] = system: K. pneumoniae BAA-2146 (NDM-1); test: microbe, parasite or virus in culture; format: cell-based
Procedure: as §1, §2

[5] = system: K. pneumoniae 700603 (ESBL); test: microbe, parasite or virus in culture; format: cell-based
Procedure: as §1, §2

[6] = 50% heat inactivated mouse serum
[7] = CLSI, 20 h, 37 °C, A620, no serum

## CC[C@H](C)[C@@H]1NC(=O)[C@@H]2CSSC[C@H](NC(=O)[C@H]([C@@H](C)CC)NC(=O)[C@@H]3CSSC[C@H](NC1=O)C(=O)N[C@@H](C(C)C)C(=O)NCC(=O)N[C@@H](CCCNC(=N)N)C(=O)NCC(=O)N3)C(=O)N[C@@H](C(C)C)C(=O)N[C@@H](CCCNC(=N)N)C(=O)N[C@@H](CCCNC(=N)N)C(=O)N[C@@H](CCCNC(=N)N)C(=O)N2 [MTD12813] (cyclo(CICVGRGCICVRRR); disulfide 1-10, 3-8)
Human whole blood
  release of TNF and IL-6: concentration-dependently suppressed
[1]
  LPS inhibition (neutralization): No LPS inhibition
[2]; single i.p. dose 1.25 mg/kg 1 h p.i.
  long term (≥ 28 days) survival: 100%
[2]; single i.p. dose 5 mg/kg 1 h p.i.
  long term (≥ 28 days) survival: 100%
[2]; Kp-1705 i.p., single i.p. 1.25 mg/kg 1 h after infection (+1 h)
  long term survival, timing of treatment: survived long term
[2]; Kp-1705 i.p., single i.p. 1.25 mg/kg 1 h before infection (−1 h)
  long term survival, timing of treatment: survived long term
[2]; Kp-1705 i.p., single i.p. 1.25 mg/kg 3 h after infection (+3 h), P = 3.9 × 10^–3
  long term survival, timing of treatment: half
[2]; Kp-1705 i.p., single i.p. 1.25 mg/kg 3 h prior to infection (−3 h)
  long term survival, timing of treatment: nearly equivalent efficacy
[2]; Kp-1705 i.p., single i.p. dose 0.5 mg/kg 1 h p.i., P = 1.1 × 10^–3
  survival benefit versus saline: survival benefit was still statistically significant
E. coli BAA-2471 (NDM-1); [6]
  MIC: 100 µg/mL (≈ 63.6 µM)
E. coli BAA-2471 (NDM-1); [7]
  MIC: 3.13 µg/mL (≈ 1.99 µM)
K. pneumoniae BAA-1706; [6]
  MIC: > 100 µg/mL
K. pneumoniae BAA-1706; [7]
  MIC: 3.13 µg/mL (≈ 1.99 µM)
[3]; CLSI M07-A9, 5 × 10^5 CFU/ml, A620, no serum
  MIC: 6.25 µg/mL (≈ 3.98 µM)
[3]; in the presence of 50% heat inactivated mouse serum, A620
  MIC: > 100 µg/mL
E. coli BAA-2340 (KPC-2); [6]
  MIC: > 100 µg/mL
E. coli BAA-2340 (KPC-2); [7]
  MIC: 6.25 µg/mL (≈ 3.98 µM)
E. coli ML35; [6]
  MIC: > 100 µg/mL
E. coli ML35; [7]
  MIC: 3.13 µg/mL (≈ 1.99 µM)
[4]; [6]
  MIC: > 100 µg/mL
[4]; [7]
  MIC: 6.25 µg/mL (≈ 3.98 µM)
[5]; [6]
  MIC: > 100 µg/mL
[5]; [7]
  MIC: 6.25 µg/mL (≈ 3.98 µM)
